Two compounds from US20210395226A1, “SUBSTITUTED ARYL COMPOUND AND PREPARATION METHOD THEREFOR AND USE THEREOF” (SICHUAN KELUN-BIOTECH BIOPHARMACEUTICAL CO., LTD., priority 2018, published 2021) can be followed below.

Test [1] concerns the target T1, Adenosine A1 receptor (human) membrane (Homo sapiens, UniProt P30542).
T1 construct: purchased PerkinElmer ES-010-M400UA
T1 sequence (P30542 1-326): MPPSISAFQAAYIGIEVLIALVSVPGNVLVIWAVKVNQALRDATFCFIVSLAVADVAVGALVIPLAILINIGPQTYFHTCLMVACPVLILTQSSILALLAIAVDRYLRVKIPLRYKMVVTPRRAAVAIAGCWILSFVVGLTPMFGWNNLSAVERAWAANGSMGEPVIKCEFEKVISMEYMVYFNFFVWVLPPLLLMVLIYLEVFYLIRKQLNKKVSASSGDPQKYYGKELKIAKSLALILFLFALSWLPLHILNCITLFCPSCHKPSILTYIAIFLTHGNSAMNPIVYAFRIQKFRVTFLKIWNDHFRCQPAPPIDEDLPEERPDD
In words: Determination of competitive inhibition constant (Ki) for adenosine A1 receptor, [3H]-DPCPX radioligand. As to conditions: 1.0 nM [3H]-DPCPX. The format is binding. The method, boiled down:
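Human A1 receptor membranes (2.5 μg/well) incubated with 1.0 nM [3H]-DPCPX and test compound for 1 h at room temperature in HEPES/MgCl2/CaCl2/NaCl buffer, pH 7.4; 1000 nM CGS-15943 defined low control. Bound radioactivity collected on PEI-treated GF/C filters and counted; IC50 converted to Ki via Cheng–Prusoff using ligand Kd.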

The target of the next test is T2, ADORA2a/CHOK1 cells (Homo sapiens, UniProt P29274).
T2 construct: host or cells: CHO-K1
As to the kind of experiment: Inhibitory activity for ADORA2a/CHOK1 cells (cAMP detection, adenosine as agonist). The format is cell-based. The settings on record: for inhibition at 0.1 µM: CHO-K1, 100 nM compound, read-out: Inhibition rate at 100 nM; for inhibition at 1 µM: CHO-K1, 1000 nM compound, read-out: Inhibition rate at 1000 nM. On the procedure:
Test Example 2: Study on Inhibitory Activity for ADORA2a/CHOK1 Cells
ADORA2a/CHOK1 cells (Cobai, CBP71017).
FBS was added to Ham's F-12 medium to a concentration of 10% (v/v), Zeocin was added to a final concentration of 200 μg/mL, and Hygromycin B was added to a final concentration of 100 μg/mL, and the resulting mixture was stored at 4° C. for later use.
A certain amount of adenosine was precisely weighed and placed into a 1.5 mL EP tube, then a certain volume of cell culture medium was added, the resulting mixture was incubated at 37° C. for dissolution, thereby a 10 mM stock solution was prepared. The stock solution was diluted with cell culture medium at 1:1000 to get 10 μM adenosine solution.
The compound to be tested was dissolved in DMSO to form a 10 mM stock solution, and the stock solution was stored in a refrigerator at 4° C. for later use. The stock solution was diluted with the 10 μM of adenosine solution to 2000 nM or 200 nM for later test.
(1) CHO-K1 cells stably expressing ADORA2A receptor were cultured in a 37° C., 5% CO2 cell incubator. When the cell confluence reached about 80%, the cells were digested by trypsin, dispersed and counted; (2) the cell concentration was adjusted to 6×10^5 cells/mL according to the counting results; (3) the cells was inoculated into a white 384-well cell culture plate at 5 μL per well (about 3000 cells/well).
All groups were provided with multiple wells, the adenosine-free cell culture medium was added to the wells of the Blank group (5 μL/well); 10 μM adenosine solution was added to the wells of the Agonist group (5 μL/well); the diluted compound was added to the wells of the test compound group (5 μL/well). After the addition of the compound was completed, the 384-well plate was centrifuged at 2500 rpm for 30 seconds to fully mix the compound and the medium, then placed in a 25° C. incubator and incubated for 30 min.
A certain volume of cAMP-d2 was taken, and diluted by adding Lysis & Detection Buffer at the ratio of 1:5 to prepare Solution A.
A certain volume of cAMP-Cryptate was taken, and diluted by adding Lysis & Detection Buffer at the ratio of 1:5 to prepare Solution B.
(2) After 30 min of incubation in step 2 was completed, addition of detection solution was carried out. The 384-well plate was taken out, 5 μL of Solution A was added to each well, and then 5 μL of Solution B was added to each well, then the 384-well plate was covered with sealing membrane, centrifuged at 2500 rpm for 30 s (to fully mix the detection solution and medium), and incubated in a thermostat at 25° C. for 1 h.
After the incubation, the 384-well plate was taken out, and detected by PHERA Star FS to read data, detection wavelength: 620 nm/665 nm.
inhibition rate %=(1−(RCompound−RBlank)/(RAgonist−RBlank))*100%
wherein, RCompound represented the R Value of the test compound group, RAgonist represented the R value of the Agonist group, and RBlank represented the R value of the Blank group.

T2 sequence (P29274 whole entry): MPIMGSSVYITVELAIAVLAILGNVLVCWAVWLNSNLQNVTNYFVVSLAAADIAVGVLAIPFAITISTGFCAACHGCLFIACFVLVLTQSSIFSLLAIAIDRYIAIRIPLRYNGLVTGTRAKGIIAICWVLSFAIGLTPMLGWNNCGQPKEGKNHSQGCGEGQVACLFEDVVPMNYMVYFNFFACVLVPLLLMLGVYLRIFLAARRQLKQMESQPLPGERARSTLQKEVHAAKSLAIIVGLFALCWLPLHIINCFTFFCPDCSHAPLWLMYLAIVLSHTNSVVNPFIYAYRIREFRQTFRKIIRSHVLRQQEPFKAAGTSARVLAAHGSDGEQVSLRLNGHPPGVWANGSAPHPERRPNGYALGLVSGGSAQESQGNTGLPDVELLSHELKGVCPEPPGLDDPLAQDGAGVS

The compound `Cc1ncnc2ccc(-c3cnc(NC(=O)N4CCOCC4)nc3-c3ccc(F)cc3)cc12` [Compound 11, N-(4-(4-fluorophenyl)-5-(4-methylquinazolin-6-yl)pyrimidin-2-yl) morpholine-4-carboxamide] displayed a Ki in test [1] of 204 nM. Besides, at ADORA2a/CHOK1 cells, the inhibition at 0.1 µM amounted to 72% and the inhibition at 1 µM amounted to 112%.
For `Cc1cc(-c2cnc(NC(=O)N3CCOCC3)nc2-c2ccc(F)cc2)cc(Cl)n1` [Compound 19, N-(5-(2-chloro-6-methylpyridin-4-yl)-4-(4-fluorophenyl)pyrimidin-2-yl) morpholine-4-carboxamide], in that order: 1400 nM, 33.9% and 94.4%.
